Laboratory results as given in patent EP3338775B1, “USE OF BUTYLIDENEPHTHALIDE” (Everfront Biotech Inc., priority 2015, dated 2017).

How the values were obtained:
Type in all cases: cell-based
[1] = tested on: Sox-2, CD133 and CD44 proteins; experiment: Western blotting of stemness-maintenance markers in MiaPaCa-2 cells; details: BP 0, 12.5, 25 and 50 µg/ml for 24 hours; Figure 6
Method: It has been known that CD44, CD133, Sox-2 (sex-determining region Y protein (SRY)-related high-mobility group box 2) and Oct4 (octamerbinding transcription factor 4) proteins all are stemness-maintenance markers of cancer stem cells and participate in the regulation of the self-renewal and differentiation of cancer stem cells. Brain CSCs ^CD133+ was treated with different concentrations (0, 12.5, 25, 50, 62.5 and 75 µg/ml) of BP for 24 hours, and then, proteins were extracted from the cells to conduct Western blotting to determine the expressions of CD133, Sox-2 and Oct4 proteins in the BP-treated brain CSCs ^CD133+. In addition, MiaPaCa-2 cell line (i.e., a cell line of pancreatic cancer cells) was treated with different concentrations (0, 12.5, 25, and 50 µg/ml) of BP for 24 hours, and then, proteins were extracted from the cells to conduct Western blotting to determine the expressions of Sox-2, CD133 and CD44 proteins in the BP-treated MiaPaCa-2 cells. […]

EZH2 = experiment: Western blotting of EZH2 protein in brain CSCs CD133+; details: BP 0, 12.5, 25, 50, 62.5 and 75 µg/ml; Figure 3
Method: It has been known that EZH2 (enhancer of zeste homolog 2) gene is a critical growth related factor of cancer stem cells, and it will affect the growth and growth characteristics of cancer stem cells. Brain CSCs ^CD133+ was treated with different concentrations (0, 12.5, 25, 50, 62.5 and 75 µg/ml) of BP, and then, proteins were extracted from the cells to conduct Western blotting to determine the expression of EZH2 protein in the BP-treated brain CSCs ^CD133+.

MMP-2 = experiment: Western blotting of MMP-2 protein in brain CSCs CD133+; details: BP 0, 12.5, 25, 50, 62.5 and 75 µg/ml for 24 hours, Figure 10
Method: It has been known that at the start of the invasion of cancer stem cells, the extracellular matrix (ECM) is degraded by matrix metalloproteinases (MMPs). Wherein, the expressions of gelatinases, such as gelatinase-A (i.e., MMP-2) and gelatinase-B (i.e., MMP-9), are highly related to the histopathology of tumor metastasis. Brain CSCs ^CD133+ was treated with different concentrations (0, 12.5, 25, 50, 62.5 and 75 µg/ml) of BP for 24 hours, and then, proteins were extracted from the cells to conduct Western blotting to determine the expression of MMP-2 protein in the BP-treated brain CSCs ^CD133+.

[2] = tested on: NHOKs (normal human oral keratinocytes); experiment: MTT viability assay on normal human oral keratinocytes; details: BP 0, 25, 50 and 100 µg/ml for 24 hours; Figure 2
Method: NHOKs (normal human oral keratinocytes) and HNC-TIC (head and neck cancer-derived tumor initiating cell)-like oral stem cells (i.e., ALDH1^+CD44^+-1 cell line or ALDH1^+CD44^+-2 cell line) were treated with different concentrations (0, 25, 50 and 100 µg/ml) of BP for 24 hours, and then, an MTT assay was utilized to analyzed the viabilities of NHOKs and HNC-TIC-like oral stem cells (i.e., ALDH1^+CD44^+-1 cell line and ALDH1^+CD44^+-2 cell line).

brain CSCs ^CD133+ = experiment: Wound healing assay with brain CSCs CD133+; details: BP 0-75 µg/ml or BCNU 0-400 µM for 24 hours; Figure 13
Excerpt: In this research, a wound healing assay was used to further investigate the effect of BP on inhibiting the metastasis of cancer stem cells.

[3] = tested on: pcDNA 3.0-Axl brain CSCs ^CD133+; experiment: Wound healing assay with pcDNA 3.0-Axl brain CSCs CD133+ (Axl overexpression); details: BP 0, 25, 50, 62.5, 75 and 100 µg/ml for 24 hours, compared to pcDNA3.0-neo cells, Figure 14C
Method: In this research, to further investigate whether the capability of BP in inhibiting the metastasis of cancer stem cells is related to Axl, brain CSCs ^CD133+ was transfected with pcDNA3.0-Axl plasmid and pcDNA3.0-neo plasmid respectively by using Lipofectmine 2000 transfection reagent. Then, the transfected brain CSCs ^CD133+ and un-transfected brain CSCs ^CD133+ were selected by 200 to 600 µg/ml G418 at the same time to obtain brain CSCs ^CD133+ having pcDNA3.0-Axl plasmid (hereinafter referred to as "pcDNA 3.0-Axl brain CSCs ^CD133+") or brain CSCs ^CD133+ having pcDNA3.0-neo plasmid (hereinafter referred to as "pcDNA3.0-neo brain CSCs ^CD133+"). Both pcDNA 3.0-Axl brain CSCs ^CD133+ and pcDNA3.0-neo brain CSCs ^CD133+ were observed and photographed with the use of a microscope. Then, proteins were extracted from both cells to conduct Western blotting to determine the expressions of Axl protein and β-actin in the BP-treated brain CSCs ^CD133+. Yet another, pcDNA 3.0-Axl brain CSCs ^CD133+ and pcDNA3.0-neo brain CSCs ^CD133+ were treated with different concentrations (0, 25, 50, 62.5, 75 and 100 µg/ml) of BP for 24 hours. At the same time, the phenomenon of pcDNA 3.0-Axl brain CSCs ^CD133+ and pcDNA3.0-neo brain CSCs ^CD133+ migrate to the wound was observed and photographed at 0 and 24 hours during the BP treatment.

With `CCCC=C1OC(=O)c2ccccc21` [BP, butylidenephthalide] the “expressions of Sox-2, CD133 and CD44 proteins in MiaPaCa-2 cells” value [1] was “significantly decreased”, the “expression of EZH2 protein in brain CSCs ^CD133+” value (EZH2) was “significantly decreased” and the “expression of MMP-2 protein” value (MMP-2) was “significantly decreased”. The “viability of NHOKs” value [2] was “did not decrease”, the “number of brain CSCs ^CD133+ migrated to the wound” value (brain CSCs ^CD133+) was “significantly decreased” and the “suppression of the number of pcDNA 3.0-Axl brain CSCs ^CD133+ migrated to the wound” value [3] was “not quite significant”.
